Assays:
[1] = target: T1, human prostaglandin I2 (IP) receptor (Homo sapiens, UniProt P43119); test: [3H]iloprost competition binding to membranes of pcDNAIamp-hIP transfected COS-M6 cells; details: for competition for [3H]iloprost specific binding to the hIP receptor: at a concentration of 30 μM; for IC50: read-out: IC50, competition for [3H]iloprost specific binding, 4 nM [3H]iloprost, COS-M6 membranes, pH 6.0, 45 min at 30° C.
T1 construct: A DNA molecule encoding the full length IP protein has been isolated and purified; expressed in transfected cells; host or cells: COS-M6 cells (membrane fraction), pcDNAIamp-hIP, DEAE-dextran transfection
T1 sequence (P43119 whole entry): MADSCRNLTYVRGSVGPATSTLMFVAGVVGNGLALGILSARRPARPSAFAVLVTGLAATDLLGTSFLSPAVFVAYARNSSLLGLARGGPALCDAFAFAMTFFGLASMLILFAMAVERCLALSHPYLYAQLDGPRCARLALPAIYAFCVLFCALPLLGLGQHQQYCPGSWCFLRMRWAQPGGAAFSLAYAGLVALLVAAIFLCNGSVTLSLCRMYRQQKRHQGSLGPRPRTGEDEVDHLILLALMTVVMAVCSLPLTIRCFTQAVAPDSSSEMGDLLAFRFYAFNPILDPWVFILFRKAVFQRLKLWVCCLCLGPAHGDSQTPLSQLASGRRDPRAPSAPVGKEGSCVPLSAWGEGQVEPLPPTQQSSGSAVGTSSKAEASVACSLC

IP receptor (hIP cDNA) = target: T2, IP receptor (hIP cDNA) (Homo sapiens, UniProt P43119); test: CFTR-mediated Cl- current in Xenopus oocytes co-injected with pcDNAIamp-IP and pcDNAIamp-CFTR (voltage clamp); assay type: cell-based; details: oocyte clamped at -60 mV, 48 h after injection
T2 construct: A DNA molecule encoding the full length IP protein has been isolated and purified; expressed in transfected cells; host or cells: Xenopus laevis oocytes, nuclear injection of pcDNAIamp-IP plus pcDNAIamp-CFTR
T2 sequence (P43119 whole entry): as above
Procedure: FIG. 5A and 5B —Expression of the prostaglandin 12 receptor in IP cDNA-injected Xenopus oocytes is shown.
(§1) The voltage-clamp experiments shown here were performed 48 hr after nuclear injection and are representative of 6 separate experiments with oocytes from 3 different frogs.
(§2) Oocytes were taken from adult females of Xenopus laevis using standard surgical procedure (Colman, A., 1984 In: Transcription and Translation—A Practical Approach, IRL Press). To remove follicle cells, oocytes were treated for 2-3 h with freshly made collagenase (2 mg/ml, type 2, Worthington Biochemical Corp., Freehold, N.J.) in Ca^2+-free ND96 solution (ND96 in mM: NaCl 96, KCl 2, MgCl2 1, HEPES 5, Na-pyruvate 2.5, theophylline 0.5, gentamicin […], +1.8 CaCl2, pH 7.6). Defolliculated stage 5-6 oocytes were selected and maintained in ND96 solution. Oocyte nuclei were injected with 1.6 ng of pcDNAlamp-IP plus 2.5 ng of pcDNAIamp-CFTR and then incubated at 18° C. for 48 h before challenge with agonist. CFTR (cystic fibrosis transmembrane regulator, a cAMP dependent Cl^− channel) was co-expressed with IP receptor in these oocytes and served as a reporter of changes in intracellular cAMP levels. Functional activity was determined by measurement of Iloprost-induced CFTR-mediated Cl^− current. An oocyte was placed in a 0.5 ml perfusion chamber and voltage clamped at −60 mV (with microelectrodes of 0.5-2.0 MW resistance filled with 3 M KCl) using a Turbo TEC 01C amplifier (NPl Instruments, Germany). Ligand-containing solution was perfused and the current response was recorded.
(§3) This rank order of potency is consistent with that reported for the IP receptor [Coleman, et al., 1990. Comprehensive Medicinal Chemistry (Hansch, C., Sammes, P. G., Taylor, J. B., and Emmett, J. C., Eds) Vol. 3, pp. 643-714, Pergamon, Press, Oxford].

[2] = test system: endogenous IP receptors in oocytes; test: Control oocytes injected with CFTR cDNA alone (voltage clamp); assay type: cell-based, Xenopus laevis; details: 100 nM
Procedure: The broken line represents the zero current level.
as §1, §2, §3

competition for [3H]iloprost specific binding to the hIP receptor [1] | IC50 [1] [µM] | CFTR-mediated Cl- current response (IP receptor (hIP cDNA); 100 nM) | current response in control (CFTR alone injected) oocytes [2] | CFTR-mediated Cl- current response (IP receptor (hIP cDNA); perfusion of 1-100 nM) | Compound
essentially inactive |  |  |  |  | CCCCC[C@H](O)/C=C/[C@@H]1[C@@H](C/C=C\CCCC(=O)O)[C@H]2CO[C@@H]1C2 [U46619]
 | ~10 |  |  |  | CCCCC[C@H](O)/C=C/[C@@H]1[C@@H](C/C=C\CCCC(=O)O)[C@@H](O)C[C@H]1O [PGF2α]
 | ~10 | not detectable | no responses |  | CCCCC[C@H](O)/C=C/[C@H]1[C@H](O)CC(=O)[C@@H]1C/C=C\CCCC(=O)O [PGE2]
essentially inactive |  | not detectable | no responses |  | CCCCC[C@H](O)/C=C/[C@H]1C(=O)C[C@H](O)[C@@H]1C/C=C\CCCC(=O)O [PGD2]
 |  |  | no responses | prominent current responses | CC#CCC(C)[C@H](O)/C=C/[C@@H]1[C@H]2C/C(=C/CCCC(=O)O)C[C@H]2C[C@H]1O (stereo partly shown) [iloprost]

Reference: US6365360B1, “Methods of identifying modulators of human IP prostaglandin receptor” (Merck Frosst Canada & Co., priority 1993, dated 2002)
